Measured values: ChEMBL document CHEMBL3301361, “Experimental in vitro DMPK and physicochemical data on a set of publicly disclosed compounds”
In brackets after ≈: the same amount, converted by molar mass.

experiment: physchem; settings: octan-1-ol/water, pH 7.4, LogD7.4

| Structure (SMILES) | logD |
| --- | --- |
| Cn1c(C#N)ccc1-c1ccc2c(c1)C(C)(C)OC(=S)N2 [TANAPROGET] | 3.4 |
| COC1(c2cc(F)cc(OCc3ccc4c(ccc(=O)n4C)c3)c2)CCOCC1 [ZD-2138] | 3.52 |
| FC(F)c1nc2ccccc2n1-c1nc(N2CCOCC2)nc(N2CCOCC2)n1 [ZSTK-474] | 3.04 |

experiment: physchem; settings: pH 7.4 buffer

| Structure (SMILES) | solubility thermodynamic |
| --- | --- |
| Cn1c(C#N)ccc1-c1ccc2c(c1)C(C)(C)OC(=S)N2 [TANAPROGET] | 3.6 µM (≈ 1.07 µg/mL) |
| COC1(c2cc(F)cc(OCc3ccc4c(ccc(=O)n4C)c3)c2)CCOCC1 [ZD-2138] | 3.2 µM (≈ 1.27 µg/mL) |
| FC(F)c1nc2ccccc2n1-c1nc(N2CCOCC2)nc(N2CCOCC2)n1 [ZSTK-474] | 0.7 µM (≈ 0.292 µg/mL) |

experiment: in vitro; settings: human, plasma

| Structure (SMILES) | fraction unbound at 5 h |
| --- | --- |
| Cc1ccc(CNC(=O)CCS(=O)(=O)c2ccc(Br)cc2)cc1 | 0.013 |
| CN1CCN2c3ccccc3CC3(C(=O)N(C)C(=O)N(C)C3=O)C2C1 (stereo not given) | 0.035 |
| Cc1ccc(Cl)cc1NC(=O)CCS(=O)(=O)c1ccc(Br)s1 | 0.0111 |
| O=C(CCS(=O)(=O)c1ccc(Br)cc1)Nc1ccc2c(c1)OCO2 | 0.0119 |
| COc1cc(/C=C2\SC(=O)NC2=O)ccc1Oc1ccc(C#N)cc1C(F)(F)F | 0.0005 |
| O=C1COc2ccc(CNC3CCN(CCN4C(=O)COc5ccc([N+](=O)[O-])cc54)CC3)nc2N1 | 0.249 |
| C[C@](N)(Cc1ccccc1)c1ccccc1 | 0.179 |
| CC(C)Cc1c(C(=O)C(N)=O)c2c(OCC(=O)NS(C)(=O)=O)cccc2n1Cc1ccccc1 | 0.0251 |

same assay, conditions: human, plasma, PPB

| Structure (SMILES) | fraction unbound at 5 h |
| --- | --- |
| CCCc1cc(C2=N[C@@H](C(=O)NO)CO2)cc(OC)c1OC | 0.0568 |
| Cc1cnc(Nc2nc(N[C@@H](C)c3ncc(F)cn3)nc(N3CCOCC3)c2F)s1 | 0.069 |
| CN[C@@H](C)C(=O)N[C@H](C(=O)N1CCC[C@H]1C(=O)N[C@@H]1CCCc2ccccc21)C(C)(C)C | 0.0801 |
| O=C(/C=C/c1ccccc1Cl)Nc1ccc2c(c1)C(=O)NC2=O | 0.0948 |
| O=C(COc1ccccc1Cl)c1ccc[nH]1 | 0.0676 |
| CC(=O)NCc1cccc(C(=O)O)c1 | 0.17 |
| C=CC1(C)CC(=O)C2(O)C(C)(O1)C(OC(C)=O)C(O)C1C(C)(C)CCC(O)C12C (stereo not given) | 0.16 |
| COc1cnc(-c2ccccn2)nc1N(C)C | 0.163 |
| O=C(O)c1ccc2nc(C(F)(F)F)[nH]c2c1 | 0.101 |
| CC(=O)S[C@@H]1CC2=CC(=O)CC[C@]2(C)C2CC[C@@]3(C)C(CC[C@@]34CCC(=O)O4)C21 (stereo not given in full) | 0.24 |
| NS(=O)(=O)c1ccc(N2N=C(c3ccc(Br)cc3)CC2c2ccc(F)cc2)cc1 (stereo not given) | 0.105 |
| NC(=O)c1cccc2c3c([nH]c12)CCCC3 | 0.28 |
| O=C(Cc1cccs1)Nc1ccon1 | 0.563 |
| Cc1nccn1-c1ccc(COc2cc(F)cc(C3(C(N)=O)CCOCC3)c2)cc1 | 0.101 |
| C[C@H](Nc1ncc(Cl)c(Nc2cc(C3CC3)[nH]n2)n1)c1ncc(F)cn1 | 0.0568 |
| Cc1cc(Nc2nc(N[C@@H](C)c3ncc(F)cn3)nc(N3CCOCC3)c2F)n[nH]1 | 0.0836 |
| Nc1nc(OCC2CCC2)nc2c1ncn2[C@@H]1O[C@H](CF)[C@@H](O)[C@H]1O | 0.228 |
| C[C@H]1O[C@@H](n2cnc3c(N)nc(OCC4CC45CC5)nc32)[C@H](O)[C@@H]1O (stereo not given in full) | 0.249 |
| COc1ccc2c(c1)N(CCN1CCC(NCc3cc4c(cn3)OCCO4)CC1)C(=O)CS2 | 0.0948 |
| CC(=O)Nc1cccc2c1c(Oc1ccc(Cl)cc1)c(C)n2CC(=O)O | 0.124 |
| CC(C(=O)OC1CC[N+](C)(C)CC1)(c1ccccc1)N1CCCCC1 (stereo not given) | 0.78 |

| Structure (SMILES) | fraction unbound at 5 h |
| --- | --- |
| CC(C)c1ccc(/C=N/NC(=O)c2ccc(O)cc2)cc1 | 0.0568 |
| CN[C@@H](C)C(=O)N[C@H](C(=O)N[C@H]1CCN(CCCc2ccccc2)C1)C1CCCCC1 | 0.36 |
| CN[C@@H](C)C(=O)N[C@H](C(=O)N[C@H]1CCCCN(CCc2ccccc2)C1)C1CCCCC1 | 0.262 |
| CN[C@@H](C)C(=O)N[C@H](C(=O)N[C@H]1CCCN([C@@H]2CCCc3ccccc32)C1)C1CCCCC1 | 0.0676 |
| CN[C@@H](C)C(=O)N[C@H](C(=O)N[C@H]1CCCN(CCc2ccc(F)cc2)C1)C(C)(C)C | 0.0784 |
| COc1cc(OC)c(S(=O)(=O)N2c3ccccc3CCC2C)cc1NC(=S)NCC(=O)O (stereo not given) | 0.309 |
| COc1cc(OC)c(S(=O)(=O)N2c3ccccc3CCC2C)cc1NC(=O)NCC(=O)O (stereo not given) | 0.28 |
| COc1cc(OC)c(S(=O)(=O)N2c3ccccc3CCC2C)cc1NC(=O)COCC(=O)O (stereo not given) | 0.266 |
| COc1cc(OC)c(S(=O)(=O)N2c3ccccc3CCC2C)cc1NC(=O)CCC(=O)O (stereo not given) | 0.186 |
| COc1cc(OC)c(S(=O)(=O)N2c3ccccc3CCC2C)cc1NC(=O)CSCC(=O)O (stereo not given) | 0.126 |
| COc1cc(OC)c(S(=O)(=O)NCc2ccccc2N2CCC(CO)CC2)cc1NC(C)=O | 0.126 |
| COc1cc(OC)c(S(=O)(=O)NCc2ccccc2N2CCC(CO)CC2)cc1NC(=O)CCC(=O)O | 0.403 |
| COc1cc(OC)c(S(=O)(=O)NCc2ccccc2N2CCC(COC(=O)CCC(=O)O)CC2)cc1NC(=O)CCC(=O)O | 0.151 |
| COc1cc(OC)c(S(=O)(=O)NCc2ccccc2N2CCC(C(=O)O)CC2)cc1NC(=O)CCC(=O)O | 0.194 |
| COc1cc(OC)c(S(=O)(=O)NCc2ccccc2N2CCC(CC(=O)O)CC2)cc1NC(=O)CCC(=O)O | 0.0872 |
| Cc1nccn1-c1ccc(Sc2cccc(C3(C(N)=O)CCOCC3)c2)cc1 | 0.069 |
| O=c1cc(N2CCOCC2)nc2n(Cc3cccc(F)c3)ccn12 | 0.22 |
| NC(=O)[C@H](Cc1ccccc1)NC(=O)OCc1ccccc1 | 0.19 |
| CCNC(=O)c1cc2c(-n3ccc(C(F)(F)F)n3)c(-c3cncc(C(=O)O)c3)cnc2[nH]1 | 0.117 |
| CCCNC(=O)c1cc2c(-n3ccc(C(F)(F)F)n3)c(-c3cncc(C(=O)O)c3)cnc2[nH]1 | 0.0768 |
| CC(C)NC(=O)c1cc2c(-n3ccc(C(F)(F)F)n3)c(-c3cncc(C(=O)O)c3)cnc2[nH]1 | 0.228 |

| Structure (SMILES) | fraction unbound at 5 h |
| --- | --- |
| CCNC(=O)c1cc2c(-n3nc(C(F)(F)F)cc3C)c(-c3cncc(C(=O)O)c3)cnc2[nH]1 | 0.454 |
| CCNC(=O)c1cc2c(-n3ccc(C(F)(F)F)n3)c(-c3cncc(C(N)=O)c3)cnc2[nH]1 | 0.36 |
| CCNC(=O)c1cc2c(-n3ccc(C(F)(F)F)n3)c(-c3cncc(C(=O)NC)c3)cnc2[nH]1 | 0.148 |
| CC(=O)Nc1ccc2c(c1)N(c1cc(NC3CC3)n3ncc(C#N)c3n1)CCO2 | 0.0752 |
| CC(=O)Nc1ccc2ccn(-c3cc(NCCN4CCOCC4)n4ncc(C#N)c4n3)c2c1 | 0.112 |
| COc1cnc(-c2ccccn2)nc1N1CCCCC1 | 0.0488 |
| COc1cnc(-c2ccccn2)nc1N1CCOCC1 | 0.339 |
| CC(C)(C)Oc1ccc(C(=O)Nc2ccc3sc(CO)nc3c2)cc1 | 0.051 |
| N=C(N)c1ccc(CNC(=O)C2(NC(=O)[C@H](NCC(=O)O)C3CCCCC3)Cc3ccccc3C2)cc1 | 0.54 |
| COc1ccc2ncc(=O)n(CCN3CC[C@H](NCc4cc5c(cn4)OCCO5)[C@H](O)C3)c2c1 | 0.194 |
| COc1ccc2ncc(=O)n(CCN3CC[C@@H](NCc4cc5c(cn4)OCCO5)[C@@H](O)C3)c2c1 | 0.142 |
| COc1ccc2ncc(=O)n(CCN3CC[C@@H](NCc4cc5c(cn4)OCCO5)[C@H](O)C3)c2c1 | 0.179 |
| COc1ccc2ncc(=O)n(CCN3CC[C@@H](NCc4ccc5c(n4)NC(=O)CO5)[C@@H](OC)C3)c2c1 | 0.28 |
| COc1ccc2ncc(=O)n(CCN3CC[C@@H](NCc4ccc5c(n4)NC(=O)CO5)[C@H](OC)C3)c2c1 | 0.179 |
| COCCC(Oc1ncnc2c1cnn2-c1ccccc1OC)C(=O)Nc1ccc(C)cn1 (stereo not given) | 0.139 |
| COc1cc(OC)c(S(=O)(=O)N2c3ccccc3CCC2C)cc1NC(=O)Cc1ccnc(F)c1 (stereo not given) | 0.0544 |
| COc1cc(OC)c(S(=O)(=O)N2c3ccccc3CCC2C)cc1NC(=O)CCc1nn[nH]n1 (stereo not given) | 0.0647 |
| O=C1NCCc2[nH]c(-c3ccncc3)cc21 | 0.586 |
| Cc1csc(N)c1C(N)=O | 0.324 |
| COc1ccc(-c2cc(O)nc(N)n2)cc1C#N | 0.126 |
| Cc1cccc(Oc2cc(S(=O)(=O)N3CCC[C@H](n4cc(C)c(=O)[nH]c4=O)C3)ccc2C(=O)O)c1 | 0.0568 |

| Structure (SMILES) | fraction unbound at 5 h |
| --- | --- |
| CCc1[nH]c2nc(Sc3cnc4ccc[n+]([O-])c4c3)nc(N3CC[C@@H](N)C3)c2c1Cl | 0.204 |
| NC1=NC(c2ccc(F)cc2)Cc2ccc(F)cc21 (stereo not given) | 0.329 |
| O=C(O)c1cn(Cc2ccccc2)c2cc(N3CCNCC3)c(F)cc2c1=O | 0.299 |
| CN(C)CCNc1cc(-c2ccncc2)nc2ccccc12 | 0.142 |
| O=C(NCC12CC3CC(CC(C3)C1)C2)c1cc(C(=O)N2CC3CNCC(C2)O3)ccc1Cl | 0.309 |
| COCCOc1cc2ncc(C(N)=O)c(Nc3ccc(F)cc3F)c2cc1N1CCN(C)CC1 | 0.454 |
| CCOc1cc2ncc(C(N)=O)c(Nc3cc(F)ccc3F)c2cc1N1CCN(C)CC1 | 0.0736 |
| COCCOc1cc2ncc(C(N)=O)c(Nc3cccc(Cl)c3Cl)c2cc1N1CCN(C)CC1 | 0.103 |
| CN1CCN(c2ccc3ncc(C(N)=O)c(Nc4ccc(Cl)c(Cl)c4)c3c2)CC1 | 0.0581 |
| CCOc1cc2ncc(C(N)=O)c(Nc3cccc(Cl)c3Cl)c2cc1N1CCN(C(C)=O)CC1 | 0.0968 |
| COCCOc1cc2ncc(C(N)=O)c(Nc3cc(C)ccc3F)c2cc1N1CCN(C)CC1 | 0.163 |
| CCOc1cc2ncc(C(N)=O)c(Nc3ccc(F)cc3F)c2cc1N1CCOCC1 | 0.0836 |
| CCOc1cc2ncc(C(N)=O)c(Nc3cccc(Cl)c3Cl)c2cc1N1CCN(C(=O)CO)CC1 | 0.163 |
| COCCOc1cc2ncc(C(N)=O)c(Nc3cccc(Cl)c3F)c2cc1N1CCN(C)CC1 | 0.392 |
| CCOc1cc2ncc(C(N)=O)c(Nc3ccc(F)cc3F)c2cc1N1CCCN(C)CC1 | 0.304 |
| CN1CCN(C(=O)c2cc(Cc3n[nH]c(=O)c4ccccc34)ccc2F)CC1 | 0.289 |
| O=C(NCC12CC3CC(CC(C3)C1)C2)c1cc(OCCNCCCO)ncc1Cl | 0.11 |
| NC1=NC(c2ccc(F)cc2)Cc2ccccc21 (stereo not given) | 0.36 |
